Measurements published in ChEMBL document CHEMBL3217518, “Biological evaluation of imidazolium- and ammonium-based salts as HIV-1 integrase inhibitors” (Medchemcomm, 2011).

How the values were obtained:
[1] = target: T1, Human immunodeficiency virus type 1 integrase (Human immunodeficiency virus 1, UniProt Q7ZJM1); assay: Inhibition of HIV1 recombinant integrase 3' processing activity using [32P]-radiolabeled full-length DNA as substrate after 1 hr by densitometric analysis
[2] = target: T1, Human immunodeficiency virus type 1 integrase; assay: Inhibition of HIV1 recombinant integrase strand transfer activity using [32P]-radiolabeled full-length DNA as substrate after 1 hr by densitometric analysis
[3] = target: Human immunodeficiency virus type 1 integrase (Human immunodeficiency virus 1) (UniProt Q7ZJM1); assay: Selectivity ratio of IC50 for HIV1 recombinant integrase strand transfer activity using precleaved LTR DNA as substrate to IC50 for HIV1 recombinant integrase strand transfer activity using [32P]-radiolabeled full-length DNA as substrate
Human immunodeficiency virus type 1 integrase (Human immunodeficiency virus 1), sequence (Q7ZJM1 as listed by the source): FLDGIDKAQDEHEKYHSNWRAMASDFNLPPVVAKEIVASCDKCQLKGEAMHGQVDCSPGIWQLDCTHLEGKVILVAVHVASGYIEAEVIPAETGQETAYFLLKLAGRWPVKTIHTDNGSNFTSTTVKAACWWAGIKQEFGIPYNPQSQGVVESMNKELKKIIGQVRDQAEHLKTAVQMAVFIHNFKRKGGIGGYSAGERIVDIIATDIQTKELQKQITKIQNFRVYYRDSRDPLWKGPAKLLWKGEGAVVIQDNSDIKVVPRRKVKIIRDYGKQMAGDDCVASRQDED

[4] = target: T1, Human immunodeficiency virus type 1 integrase; assay: Inhibition of HIV1 recombinant integrase strand transfer activity using precleaved LTR DNA as substrate after 1 hr by densitometric analysis

T1 sequence (Q7ZJM1 whole entry): as the sequence (Q7ZJM1 as listed by the source) above

| SMILES | IC50 [1] | IC50 [2] | Ratio IC50 [3] | IC50 [4] |
| --- | --- | --- | --- | --- |
| CCCCCCCCCCCCCCCCn1cc[n+](C)c1 | 2.5 µM | 1.3 µM | 3 | 5.6 µM |
| CCCCCCCCCCn1cc[n+](C)c1 | > 333 µM | > 333 µM | – | – |
| CN(C)C(N(C)C)N(C)C | > 100 µM | > 100 µM | – | – |
| CCCCCCCC[N+](C)(CCCCCCCC)CCCCCCCC [listing 1 of 2 here] | 9 µM | 6.12 µM | – | – |
| CCCCCCCCCCCCCCCCCC[n+]1ccn(C)c1 [listing 1 of 2 here] | – | 1.4 µM | – | – |
| CCCCCCCCCCCCn1cc[n+](C)c1 | 72 µM | 36.6 µM | – | – |
| CCCCCCCC[N+](C)(CCCCCCCC)CCCCCCCC.O=S(=O)([N-]S(=O)(=O)C(F)(F)F)C(F)(F)F | > 100 µM | 6.6 µM | – | – |
| CCCCCCCCN(CCCCCCCC)CCCCCCCC | > 333 µM | > 333 µM | – | – |
| CCCCCCCC[N+]1(C)CCCC1 | > 100 µM | > 100 µM | – | – |
| CCCCCCCC[n+]1ccn(C)c1 | > 100 µM | > 100 µM | – | – |
| C[N+](C)(C)C.O=C1O[B-]2(OC1=O)OC(=O)C(=O)O2 | > 333 µM | 310 µM | – | – |
| CCCCCCCCCCCCCCCCCCPCCCCCCCCCCCCCC.O=S(=O)(NS(=O)(=O)C(F)(F)F)C(F)(F)F (stereo not given) | > 100 µM | > 100 µM | – | – |
| CCCCCCCCCCCCCCCCCC[n+]1ccn(C)c1 [listing 2 of 2 here] | 1.7 µM | 1.1 µM | – | 3.5 µM |
| CCCCCCCC[N+](C)(CCCCCCCC)CCCCCCCC [listing 2 of 2 here] | 6.8 µM | 2.8 µM | – | – |
| C[N+](C)(C)C.FC(F)(F)C(F)(F)[P-](F)(F)(F)(C(F)(F)C(F)(F)F)C(F)(F)C(F)(F)F | 138 µM | 38.5 µM | – | – |
| CCCCCCCCCCCCCCCCCC[n+]1ccn(C)c1.O=S(=O)([N-]S(=O)(=O)C(F)(F)F)C(F)(F)F | 1.6 µM | 1.53 µM | – | 4 µM |
| CCCCCCCC[n+]1ccccc1 | > 100 µM | > 100 µM | – | – |
| CCCCCCCCCCn1ccnc1 | > 333 µM | > 333 µM | – | – |
| CCCCCCCCCCCCCCCCCCn1ccnc1 | > 333 µM | > 333 µM | – | – |
| CCCCCCCCN(C)CCCCCCCC | > 333 µM | > 333 µM | – | – |
| CCCCCCCCCCCCCCn1cc[n+](C)c1 | 55.2 µM | 20.2 µM | – | – |
